Ten molecules from ChEMBL document CHEMBL1141220, “A new class of HIV-1 protease inhibitors containing a tertiary alcohol in the transition-state mimicking scaffold” (J Med Chem, 2005) can be followed below.

The structures appear in SMILES notation. Some results are limits rather than exact numbers.

Data set [1] has as its target Human immunodeficiency virus type 1 protease (Human immunodeficiency virus 1, UniProt Q72874). As to the kind of experiment: Inhibitory activity against HIV1 protease expressed in Escherichia coli in a fluorometric assay.
For data set [2], the system named is MT4. As to the kind of experiment: Antiviral activity against HIV1 infected MT4 cells by colorimetric XTT assay. It counts as functional, cell-based. The settings on record: Homo sapiens. For orientation: Formazan colour is commonly taken as a measure of viable cells.
Data set [3] deals with MT4. As to the kind of experiment: Antiviral activity against mutant HIV1 (V32I, M46I, V82A) infected MT4 cells by colorimetric XTT assay. It counts as functional, cell-based.
The test system of data set [4] is MT4. As to the kind of experiment: Antiviral activity against mutant HIV1 (V32I, M46I, A71V, V82A) infected MT4 cells by colorimetric XTT assay. It counts as functional, cell-based.
Data set [5] is described as follows: Caco-2 cell membrane permeability. In kind it is ADME, cell-based. As to conditions: human. (Passage across Caco-2 layers is used to estimate intestinal permeability.)
The nature of data set [6]: Intrinsic clearance (CL) in human liver microsomes at 2 uM. In kind it is ADME, Microsome. A general note: Microsomes from liver hold many membrane-bound enzymes, among them those of drug oxidation.

A word on the Ki: it is a dissociation constant, usually derived from enzyme kinetics or from competition with a known ligand. Low readings indicate tighter binding, high ones weaker binding. In general, EC50 refers to the concentration needed to bring the measured effect to its halfway point. Read a high EC50 as a less potent agent. With `COC(=O)N[C@H](C(=O)NN(Cc1ccccc1)C[C@@](O)(Cc1ccccc1)C(=O)N[C@H]1c2ccccc2C[C@H]1O)C(C)C`, the Ki in data set [1] was 9 nM. For the same molecule, the EC50 in data set [2] was 4800 nM.
In general, Papp refers to a coefficient for how fast a substance crosses the barrier. With `COC(=O)N[C@H](C(=O)NN(Cc1ccc(Br)cc1)C[C@@](O)(Cc1ccccc1)C(=O)N[C@H]1c2ccccc2C[C@H]1O)C(C)(C)C`, the figures for the EC50 in data set [2], in data set [3] and in data set [4] were 1100 nM, 900 nM and 800 nM, respectively. The Papp in data set [5] came to 42 ×10⁻⁶ cm/s.
In turn, `CC(C)[C@H](NC(=O)OCc1ccccc1)C(=O)NN(Cc1ccccc1)C[C@](O)(Cc1ccccc1)C(=O)N[C@H]1c2ccccc2C[C@H]1O` displayed a Ki in data set [1] of 870 nM. The molecule also came in with an EC50 in data set [2] above 10000 nM.
Molecule `COC(=O)N[C@H](C(=O)NN(Cc1ccccc1)C[C@](O)(Cc1ccccc1)C(=O)N[C@H]1c2ccccc2C[C@H]1O)C(C)(C)C` displayed an EC50 in data set [2] above 10000 nM.
Regarding `CC(C)(C)[C@H](NS(C)(=O)=O)C(=O)NN(Cc1ccccc1)C[C@@](O)(Cc1ccccc1)C(=O)N[C@H]1c2ccccc2C[C@H]1O`, in data set [1], the affinity corresponds to a Ki of 63 nM. For the same molecule, the EC50 in data set [2] is above 10000 nM.
As for `CC(C)[C@H](NC(=O)OCc1ccccc1)C(=O)NN(Cc1ccccc1)C[C@@](O)(Cc1ccccc1)C(=O)N[C@H]1c2ccccc2C[C@H]1O`, the affinity in data set [1], expressed as Ki, was 23 nM. Also, in data set [2], the EC50 was above 10000 nM.
The matching figures for `CC(C)(C)[C@H](NC(=O)NCc1ccccc1)C(=O)NN(Cc1ccccc1)C[C@@](O)(Cc1ccccc1)C(=O)N[C@H]1c2ccccc2C[C@H]1O`: 22 nM and above 10000 nM.
In data set [1], `CC(C)(C)[C@H](NC(=O)OCc1ccccc1)C(=O)NN(Cc1ccccc1)C[C@@](O)(Cc1ccccc1)C(=O)N[C@H]1c2ccccc2C[C@H]1O` registered an inhibitory constant (Ki) of 18 nM. In data set [2], this molecule came in with a 50% effective concentration (EC50) above 10000 nM.
By microsomal CLint is commonly meant the rate of metabolic loss divided by the concentration. For the molecule `COC(=O)N[C@H](C(=O)NN(Cc1ccccc1)C[C@@](O)(Cc1ccccc1)C(=O)N[C@H]1c2ccccc2C[C@H]1O)C(C)(C)C`, the inhibition constant (Ki) in data set [1] was found to be 6 nM. Also, the EC50 was 1900 nM in data set [2], 2000 nM in data set [3] and 1600 nM in data set [4]. Also, in data set [5], the Papp came out at 35 ×10⁻⁶ cm/s. This molecule also came in with a microsomal CLint at 2 µM in data set [6] of 527 µL/min/mg.
The molecule `CC(C)[C@H](NC(=O)OCc1ccccc1)C(=O)NN(Cc1ccc(Br)cc1)C[C@@](O)(Cc1ccccc1)C(=O)N[C@H]1c2ccccc2C[C@H]1O` registered a Ki in data set [1] of 17 nM. In addition, the EC50 in data set [2] was above 10000 nM.
